Data as given in ChEMBL document CHEMBL5380842, “Discovery of a Potent and Selective CCR8 Small Molecular Antagonist IPG7236 for the Treatment of Cancer” (J Med Chem, 2023).
In brackets after ≈: the same amount, converted by molar mass.

Assays:
MDA-MB-231 [1] = experiment: Synergistic antitumor activity against human MDA-MB-231 cells xenografted in humanized NCG mouse assessed as tumor growth inhibition at 10 mg/kg, po bid in presence of PD-1 antibody relative to control; type: functional; details: read-out: TGI
[2] = Oral bioavailability in Cynomolgous monkey at 50 mg/kg; type: ADME, organism-based, Macaca fascicularis; details: cynomolgus monkey, in vivo
MDA-MB-231 [3] = experiment: Antitumor activity against human MDA-MB-231 cells xenografted in humanized NCG mouse assessed as decrease in tumor-infiltrating Treg cells administered intragastrically twice everyday; type: functional, cell-based; details: dose 2-50 mg/kg, route ig
[4] = Apparent permeability of compound across apical to basal side in human Caco2 cells at 10 uM incubated for 120 mins by LC-MS/MS analysis; details: Caco-2
[5] = Stability in mouse liver microsomes assessed as half life; type: ADME, Microsome
[6] = Clearance in Sprague-Dawley rat at 1 mg/kg, iv; type: ADME, organism-based; details: in vivo
[7] = Unbound fraction in human plasma; type: ADME, cell-free
[8] = AUClast in Beagle dog at 10 mg/kg, po; type: ADME, organism-based, Canis lupus familiaris; design: dose 10 mg/kg, route po; details: in vivo
[9] = Clearance in ICR mouse at 1 mg/kg, iv; type: ADME, organism-based; details: in vivo
[10] = Solubility of compound in PBS at pH 7.4 incubated for 2 hrs by LC-MS/MS analysis; type: physicochemical
[11] = Clearance in Beagle dog at 3 mg/kg, iv; type: ADME, organism-based, Canis lupus familiaris; details: in vivo
Cytochrome P450 2B6 = biological target: T1, Cytochrome P450 2B6 (Homo sapiens, UniProt P20813); experiment: Inhibition of CYP2B6 (unknown origin); type: ADME
T1 sequence (P20813 whole entry): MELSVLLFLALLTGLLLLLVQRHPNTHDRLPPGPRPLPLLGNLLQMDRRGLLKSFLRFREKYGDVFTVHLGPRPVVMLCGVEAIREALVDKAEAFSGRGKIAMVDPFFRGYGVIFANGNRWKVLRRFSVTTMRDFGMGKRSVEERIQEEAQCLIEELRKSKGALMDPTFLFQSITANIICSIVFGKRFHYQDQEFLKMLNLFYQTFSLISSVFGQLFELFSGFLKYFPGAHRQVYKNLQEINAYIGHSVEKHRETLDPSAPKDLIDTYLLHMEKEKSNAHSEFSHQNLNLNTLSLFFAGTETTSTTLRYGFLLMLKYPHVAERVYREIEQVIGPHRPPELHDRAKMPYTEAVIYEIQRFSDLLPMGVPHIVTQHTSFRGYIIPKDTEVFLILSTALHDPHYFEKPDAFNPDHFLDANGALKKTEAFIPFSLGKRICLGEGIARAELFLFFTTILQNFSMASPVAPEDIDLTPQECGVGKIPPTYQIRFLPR

[12] = Stability in rat liver microsomes assessed as half life; type: ADME, Microsome
Cytochrome P450 2C19 = Cytochrome P450 2C19 (Homo sapiens, UniProt P33261); experiment: Inhibition of CYP2C19 (unknown origin); type: ADME
[13] = Tmax in ICR mouse at 50 mg/kg, po; type: ADME, organism-based; details: in vivo
Cytochrome P450 2D6 = Cytochrome P450 2D6 (Homo sapiens, UniProt P10635); experiment: Inhibition of CYP2D6 (unknown origin); type: ADME
[14] = biological target: Voltage-gated inwardly rectifying potassium channel KCNH2 (Homo sapiens, UniProt Q12809); experiment: Inhibition of hERG; type: toxicity
[15] = Oral bioavailability in Beagle dog at 10 mg/kg; type: ADME, organism-based, Canis lupus familiaris; details: in vivo

Cytochrome P450 2D6, sequence (P10635 whole entry): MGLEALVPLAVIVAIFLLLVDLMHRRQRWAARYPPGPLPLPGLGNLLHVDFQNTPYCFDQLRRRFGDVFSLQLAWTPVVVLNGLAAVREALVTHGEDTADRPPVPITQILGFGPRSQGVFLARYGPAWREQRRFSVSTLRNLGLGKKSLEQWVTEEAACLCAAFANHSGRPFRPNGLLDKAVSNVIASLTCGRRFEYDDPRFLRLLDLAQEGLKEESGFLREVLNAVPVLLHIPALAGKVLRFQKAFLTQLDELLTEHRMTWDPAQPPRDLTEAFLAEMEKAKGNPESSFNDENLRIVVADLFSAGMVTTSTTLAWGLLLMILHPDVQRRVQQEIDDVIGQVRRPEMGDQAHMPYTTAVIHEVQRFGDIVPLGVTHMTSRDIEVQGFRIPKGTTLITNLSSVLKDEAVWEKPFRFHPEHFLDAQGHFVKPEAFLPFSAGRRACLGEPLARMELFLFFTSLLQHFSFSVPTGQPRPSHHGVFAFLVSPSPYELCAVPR
Cytochrome P450 2C19, sequence (P33261 whole entry): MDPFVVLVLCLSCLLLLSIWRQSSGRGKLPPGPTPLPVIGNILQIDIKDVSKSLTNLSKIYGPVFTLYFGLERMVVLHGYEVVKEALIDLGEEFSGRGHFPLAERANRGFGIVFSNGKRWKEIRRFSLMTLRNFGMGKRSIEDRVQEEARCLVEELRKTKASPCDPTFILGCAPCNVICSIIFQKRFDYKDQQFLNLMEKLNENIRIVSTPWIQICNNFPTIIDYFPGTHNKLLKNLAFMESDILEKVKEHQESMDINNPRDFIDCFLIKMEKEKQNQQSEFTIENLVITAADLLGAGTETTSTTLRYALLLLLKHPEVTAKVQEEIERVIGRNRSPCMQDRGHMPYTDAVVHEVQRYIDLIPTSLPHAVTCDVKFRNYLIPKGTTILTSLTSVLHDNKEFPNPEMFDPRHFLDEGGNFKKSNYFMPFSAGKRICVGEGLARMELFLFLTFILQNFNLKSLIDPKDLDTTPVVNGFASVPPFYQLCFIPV
Voltage-gated inwardly rectifying potassium channel KCNH2, sequence (Q12809 whole entry): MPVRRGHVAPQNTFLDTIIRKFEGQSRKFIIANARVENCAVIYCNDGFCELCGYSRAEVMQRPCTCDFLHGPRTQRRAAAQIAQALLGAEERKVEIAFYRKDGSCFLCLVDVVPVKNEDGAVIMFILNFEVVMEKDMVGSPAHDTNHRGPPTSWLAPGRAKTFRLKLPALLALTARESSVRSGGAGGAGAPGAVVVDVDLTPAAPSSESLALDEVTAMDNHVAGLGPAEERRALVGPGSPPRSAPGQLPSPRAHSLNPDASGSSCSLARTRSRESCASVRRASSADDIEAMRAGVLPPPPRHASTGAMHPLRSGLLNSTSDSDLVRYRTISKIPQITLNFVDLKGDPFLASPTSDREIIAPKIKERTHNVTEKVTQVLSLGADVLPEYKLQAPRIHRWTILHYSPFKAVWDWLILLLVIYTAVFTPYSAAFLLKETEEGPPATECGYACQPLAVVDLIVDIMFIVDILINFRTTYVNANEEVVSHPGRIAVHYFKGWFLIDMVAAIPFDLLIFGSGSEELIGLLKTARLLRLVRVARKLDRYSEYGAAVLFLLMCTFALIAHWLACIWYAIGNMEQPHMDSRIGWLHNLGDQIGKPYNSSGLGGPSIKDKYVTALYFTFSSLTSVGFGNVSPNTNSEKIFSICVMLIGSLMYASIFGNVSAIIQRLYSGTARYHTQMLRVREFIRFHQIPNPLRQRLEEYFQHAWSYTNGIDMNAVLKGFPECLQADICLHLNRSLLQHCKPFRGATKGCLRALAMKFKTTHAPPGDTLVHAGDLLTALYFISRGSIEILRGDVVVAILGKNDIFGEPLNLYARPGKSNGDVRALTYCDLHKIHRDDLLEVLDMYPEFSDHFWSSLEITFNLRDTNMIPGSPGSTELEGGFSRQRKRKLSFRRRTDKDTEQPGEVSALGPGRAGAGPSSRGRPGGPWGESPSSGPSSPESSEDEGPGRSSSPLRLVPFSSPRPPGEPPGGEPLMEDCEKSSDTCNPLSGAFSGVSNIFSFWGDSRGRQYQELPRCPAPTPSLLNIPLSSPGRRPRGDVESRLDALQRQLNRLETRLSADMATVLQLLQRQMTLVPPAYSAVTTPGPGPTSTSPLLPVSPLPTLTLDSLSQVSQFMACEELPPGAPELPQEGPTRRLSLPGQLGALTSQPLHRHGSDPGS

- bioavailability [2]: 105%
- Papp A→B at 2 h, 10 µM [4]: 3.7 ×10⁻⁶ cm/s
- half-life [5]: 26 min
- clearance [6]: 40.9 mL/min/kg
- fraction unbound [7]: 0.358
- AUC(0-t) [8]: 6480 ng·h/mL
- clearance [9]: 24.5 mL/min/kg
- solubility at 2 h [10]: 254 µM (≈ 109 µg/mL)
- clearance [11]: 14.2 mL/min/kg
- IC50 (Cytochrome P450 2B6): > 10 µM
- half-life [12]: 150 min
- IC50 (Cytochrome P450 2C19): > 10 µM
- Tmax [13]: 30 min
- IC50 (Cytochrome P450 2D6): > 10 µM
- bioavailability [15]: 55%
SMILES: Cc1cc(S(=O)(=O)N[C@H](C)C2CCN(C)CC2)ccc1NC(=O)c1ccccc1C
- inhibition in vivo at 10 mg/kg (MDA-MB-231 [1]): 73.8%
- Activity (MDA-MB-231 [3]): Dose-Dependent Effect
- IC50 [14]: > 30 µM
